From patent publication US20250034216A1, “STEREOSELECTIVE COVALENT LIGANDS FOR ONCOGENIC AND IMMUNOLOGICAL PROTEINS” (The Scripps Research Institute, priority 2021, published 2025)

Assays:
Assay in all cases: IA-DTB cysteine engagement
Type in all cases: binding
Conditions in all cases: 22Rv1 cells, 20 μM probe, 1 h, relative to DMSO
DDX39B_C87 = molecular target: T1, DDX39B_C87 (Homo sapiens, UniProt Q13838)
T1 construct: endogenous in cells; host or cells: 22Rv1
Procedure, shortened: (§1)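 Read-out is TMT-based cysteine engagement, expressed as each reporter ion intensity divided by the average of the DMSO channels. Before that, probe-treated cell lysates were capped with IA-DTB, digested, enriched on streptavidin and TMT-tagged. PSMs with DMSO summed intensity <10,000 or DMSO CV >0.5 were excluded.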

ESRP1_C551 = molecular target: T2, ESRP1_C551 (Homo sapiens, UniProt Q6NXG1)
T2 construct: endogenous in cells; host or cells: 22Rv1
T2 sequence (Q6NXG1 1-681): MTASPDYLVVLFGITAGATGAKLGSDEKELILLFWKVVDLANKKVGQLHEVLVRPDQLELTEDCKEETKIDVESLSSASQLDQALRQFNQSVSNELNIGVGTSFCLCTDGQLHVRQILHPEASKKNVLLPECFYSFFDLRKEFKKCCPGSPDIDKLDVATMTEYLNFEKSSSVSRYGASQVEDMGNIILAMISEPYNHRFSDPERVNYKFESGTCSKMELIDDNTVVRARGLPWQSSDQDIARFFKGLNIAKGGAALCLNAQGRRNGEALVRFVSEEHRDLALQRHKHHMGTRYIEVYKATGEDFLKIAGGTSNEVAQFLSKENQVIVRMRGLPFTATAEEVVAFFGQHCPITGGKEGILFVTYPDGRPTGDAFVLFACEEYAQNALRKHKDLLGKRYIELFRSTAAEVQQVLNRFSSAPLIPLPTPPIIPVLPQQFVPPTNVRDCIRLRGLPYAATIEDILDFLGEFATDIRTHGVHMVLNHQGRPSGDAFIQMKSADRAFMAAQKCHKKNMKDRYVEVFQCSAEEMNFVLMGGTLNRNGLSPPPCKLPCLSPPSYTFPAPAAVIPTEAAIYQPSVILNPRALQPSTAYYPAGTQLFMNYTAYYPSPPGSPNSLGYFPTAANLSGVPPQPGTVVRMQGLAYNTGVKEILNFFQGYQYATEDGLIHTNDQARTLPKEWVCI
Procedure, shortened: as §1

XXYLT1_C10 = molecular target: T3, XXYLT1_C10 (Homo sapiens, UniProt Q8NBI6)
T3 construct: endogenous in cells; host or cells: 22Rv1
T3 sequence (Q8NBI6 1-393): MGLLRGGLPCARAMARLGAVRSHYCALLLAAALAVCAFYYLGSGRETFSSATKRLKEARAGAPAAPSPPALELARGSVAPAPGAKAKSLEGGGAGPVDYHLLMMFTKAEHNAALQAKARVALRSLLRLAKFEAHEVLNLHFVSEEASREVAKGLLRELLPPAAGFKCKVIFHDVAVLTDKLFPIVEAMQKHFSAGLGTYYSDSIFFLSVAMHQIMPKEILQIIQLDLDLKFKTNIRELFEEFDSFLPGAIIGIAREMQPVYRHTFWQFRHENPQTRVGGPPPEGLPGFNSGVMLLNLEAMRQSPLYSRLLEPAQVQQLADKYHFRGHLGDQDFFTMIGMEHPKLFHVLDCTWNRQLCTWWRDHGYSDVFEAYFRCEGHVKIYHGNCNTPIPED
Procedure, shortened: as §1

T1 sequence (Q13838 whole entry): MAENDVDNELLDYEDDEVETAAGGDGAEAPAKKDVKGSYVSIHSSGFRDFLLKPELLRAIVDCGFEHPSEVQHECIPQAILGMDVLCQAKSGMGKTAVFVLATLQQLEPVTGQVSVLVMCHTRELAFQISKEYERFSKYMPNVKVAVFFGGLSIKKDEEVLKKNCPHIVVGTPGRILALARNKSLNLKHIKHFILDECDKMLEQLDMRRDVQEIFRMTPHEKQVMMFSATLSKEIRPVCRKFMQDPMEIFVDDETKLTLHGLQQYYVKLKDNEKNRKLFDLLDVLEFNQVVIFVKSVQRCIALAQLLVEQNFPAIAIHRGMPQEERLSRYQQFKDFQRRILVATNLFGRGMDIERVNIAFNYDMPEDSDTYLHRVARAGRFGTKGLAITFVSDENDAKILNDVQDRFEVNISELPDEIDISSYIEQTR

| % engagement DDX39B_C87 (DDX39B_C87) [%] | % engagement ESRP1_C551 (ESRP1_C551) [%] | % engagement XXYLT1_C10 (XXYLT1_C10) [%] | Structure (SMILES) |
| --- | --- | --- | --- |
| 44.5 | 51 | 76.5 | C=CC(=O)N1C[C@@H](c2ccc(Br)cc2)[C@H]1C(=O)Nc1cccc2cccnc12 [MY-1A, (2S,3R)-1-acryloyl-3-(4-bromophenyl)-N-(quinolin-8-yl)azetidine-2-carboxamide] |
| 37 | 73.5 | 77 | C=CC(=O)N1C[C@H](c2ccc(Br)cc2)[C@@H]1C(=O)Nc1cccc2cccnc12 [MY-1B, (2R,3S)-1-acryloyl-3-(4-bromophenyl)-N-(quinolin-8-yl)azetidine-2-carboxamide] |
| 67.5 | 69 | 93 | C=CC(=O)N1C[C@H](c2ccc(Br)cc2)[C@H]1C(=O)Nc1cccc2cccnc12 [MY-3B, (2S,3S)-1-acryloyl-3-(4-bromophenyl)-N-(quinolin-8-yl)azetidine-2-carboxamide] |
| 23.5 | 6.5 | 67 | C=CC(=O)N1C[C@H](c2ccc(Br)cc2)[C@H]1C(=O)Nc1cccc2cccnc12 [MY-3A, (2S,3S)-1-acryloyl-3-(4-bromophenyl)-N-(quinolin-8-yl)azetidine-2-carboxamide] |
